# According to patent US12281180B2, “Peptoid-peptide macrocycles, pharmaceutical compositions and methods of using the same” (New York University, priority 2018, dated 2025):
# Numbered stars: 1 amine (or outer) side, 2 acyl side, 3 side chain; on linkers, the order of the positions; unused ones are H or OH. Square brackets hold non-standard residues; d marks the D form. Peptide text beside a SMILES is read from it. N(2-(2-PhOPh)Et)Gly = O=C(O)CNCCc1ccccc1Oc1ccccc1; Gly(N-3,5-(OMe)2-Ph) = COc1cc(NCC(=O)O)cc(OC)c1; X1 = COc1ccc([C@H](C)N(CC(=O)[*:2])[*:1])cc1; N((CH2)3OiPr)Gly = CC(C)OCCCNCC(=O)O
# Assays:
# [1] = system: Wnt signaling in zebrafish embryos; test: Zebrafish phenotypic assay of Wnt signaling (eye development); type: in vivo
# Excerpt: Rescue of eye development in Wnt-activated zebrafish embryos by the hit oligomer macrocycle—To evaluate the efficacy of 13 in vivo, a zebrafish model was utilized. The relevance of the model for our studies is that zebrafish embryos with Wnt activating mutations in the AXIN gene, a component of the β-catenin destruction complex, fail to develop eyes or a forebrain. The phenotype can be recapitulated by treatment with an inhibitor (termed BIO) for another β-catenin destruction complex member, GSK3, in embryos at 6 hours post-fertilization (hpf). It would then be anticipated that 13 inhibits the chemically over-activated Wnt signal, and potentially rescue eye development. To test this compound BIO was added to zebrafish embryos at 6 hpf with and without 13 as described in FIG. 10A.
# Zebrafish Experiments The zebrafish phenotypic assay was conducted using wildtype zebrafish embryos seeded into a 96 well round bottom plate in 50 μl of blue zebrafish embryo media. At 50% epiboly, roughly 5.5 hours post fertilization, 50 ul of 30 μM cyclic peptoid compound was added. About 30 minutes later at shield stage, 50 μl 6 nM (3×) BIO was added. The embryos were then visualized for the presence of eyes and imaged at 30 hours post fertilization.
# Wnt signaling pathway = test: TOP-Flash Wnt luciferase reporter assay; type: cell-based; conditions: for IC50: TOP-Flash LNCaP-abl cells, siAPC 24 h then 24 h compound, read-out: IC50 for Wnt luciferase inhibition
# Protocol: The macrocycles were evaluated for their ability to inhibit the Wnt signaling pathway in cell culture. The macrocycles were administered at a concentration of 10 micromolar, and the activity was monitored with a luciferase reporter assay responsive to signaling through the Wnt pathway. […] The macrocycles were also observed to exert minimal cellular toxicity at the 10 micromolar concentration. […] Cells were incubated with 5 μM of peptoid macrocycles prior to co-IP.
# (§1) Compound testing and identification of a hit compound—Using a TOP-Flash Wnt luciferase reporter, 12 oligomers identified from in silico modeling for inhibitory activity (FIG. 6A) were tested. At […] concentration, all compounds had some level of Wnt inhibitory activity in cell culture, with varying degrees of efficacy. Also employed was a 3×-Androgen Response Element (ARE) luciferase reporter to measure the effect on AR activity. […] FIG. 2B depicts the predicted structure and contacts of the β-catenin: 13 complex.
# AR signaling = test: 3x-Androgen Response Element (ARE) luciferase reporter assay; type: cell-based; conditions: for IC50: 3xARE LNCaP-abl cells, 48 h compound, read-out: IC50 for inhibition of the AR luciferase reporter
# Protocol: as §1
# [2] = target: T1, β-catenin:TCF4 protein interaction (Homo sapiens, UniProt P35222); test: Co-immunoprecipitation of myc-TCF4 and endogenous β-catenin in HEK293 cells; type: cell-based; conditions: 10 μM, 48 hour treatment
# T1 construct: endogenous in cells; host or cells: HEK293 (β-catenin endogenous; myc-TCF4 transfected from addgene #32738)
# T1 sequence (P35222 2-781 limits assumed): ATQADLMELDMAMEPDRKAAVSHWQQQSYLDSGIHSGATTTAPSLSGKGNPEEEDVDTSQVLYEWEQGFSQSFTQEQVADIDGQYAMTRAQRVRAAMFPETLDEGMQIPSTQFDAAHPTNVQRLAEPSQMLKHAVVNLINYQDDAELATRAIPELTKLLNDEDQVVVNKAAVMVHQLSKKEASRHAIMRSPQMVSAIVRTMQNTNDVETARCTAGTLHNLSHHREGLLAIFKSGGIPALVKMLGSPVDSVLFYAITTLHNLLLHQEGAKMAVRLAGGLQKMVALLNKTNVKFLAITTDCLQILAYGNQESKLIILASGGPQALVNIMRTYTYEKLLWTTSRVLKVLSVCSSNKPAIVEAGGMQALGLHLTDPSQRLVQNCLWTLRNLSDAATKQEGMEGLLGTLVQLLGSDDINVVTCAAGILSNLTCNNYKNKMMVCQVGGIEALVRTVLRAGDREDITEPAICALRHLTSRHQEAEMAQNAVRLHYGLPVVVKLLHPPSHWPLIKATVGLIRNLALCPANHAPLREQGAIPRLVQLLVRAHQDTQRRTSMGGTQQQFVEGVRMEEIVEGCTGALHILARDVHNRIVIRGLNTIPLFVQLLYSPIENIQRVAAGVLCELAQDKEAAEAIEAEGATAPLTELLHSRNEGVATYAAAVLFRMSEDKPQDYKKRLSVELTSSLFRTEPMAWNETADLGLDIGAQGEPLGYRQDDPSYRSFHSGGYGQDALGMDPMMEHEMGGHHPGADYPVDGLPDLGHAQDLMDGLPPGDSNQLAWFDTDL
# Protocol: HEK293 cells were transiently transfected with a plasmid expressing full length, myc-tagged TCF4.
# Cell Culture LNCaP-abl and LNCaP-95 cells were cultured in indicator free RPMI 1640 media (Life) supplemented with 10% charcoal stripped FBS, 1% penn/strep, and 1% L-Glutamine. HEK-293 Cells were cultured in DMEM media (Life) supplemented with 10% FBS and 1% penn/strep. Luciferase assays were conducted using stably transfected TOP-flash and 3×ARE LNCaP-abl cell lines. For the Wnt pathway, TOP-Flash LNCaP-abl cells were treated with siAPC for 24 hours followed by 24 hours treatment with compound. For the AR-pathway, 3×ARE LNCaP-abl cells were treated for 48 hours with compound, with the addition of R1881 for the final 8 hours. Both were measured using the ONE-Glo detection kit (Promega) and reported data is standardized to the cell-titer control values. Co-immunoprecipitation was carried out using HEK293 cells transfected with either myc-TCF (addgene #32738) or myc-TCF dominant negative (addgene #32739) followed by 48 hours of treatment with compound. Cells were lysed using trition lysis buffer and 1 mg total protein was incubated overnight at 4 C with 40 μl anti-cMyc magnetic beads (Thermo). […] After 5 days of treatment the cell viability was measured with the CellTiter-Fluor Cell Viability Assay (Promega) and data is reported standardized to DMSO control.
# [3] = target: T2, β-catenin:TCF family interaction (Homo sapiens, UniProt P35222); test: Two-hybrid like assay of β-catenin:TCF family member interactions; type: cell-based
# T2 sequence (P35222 1-781): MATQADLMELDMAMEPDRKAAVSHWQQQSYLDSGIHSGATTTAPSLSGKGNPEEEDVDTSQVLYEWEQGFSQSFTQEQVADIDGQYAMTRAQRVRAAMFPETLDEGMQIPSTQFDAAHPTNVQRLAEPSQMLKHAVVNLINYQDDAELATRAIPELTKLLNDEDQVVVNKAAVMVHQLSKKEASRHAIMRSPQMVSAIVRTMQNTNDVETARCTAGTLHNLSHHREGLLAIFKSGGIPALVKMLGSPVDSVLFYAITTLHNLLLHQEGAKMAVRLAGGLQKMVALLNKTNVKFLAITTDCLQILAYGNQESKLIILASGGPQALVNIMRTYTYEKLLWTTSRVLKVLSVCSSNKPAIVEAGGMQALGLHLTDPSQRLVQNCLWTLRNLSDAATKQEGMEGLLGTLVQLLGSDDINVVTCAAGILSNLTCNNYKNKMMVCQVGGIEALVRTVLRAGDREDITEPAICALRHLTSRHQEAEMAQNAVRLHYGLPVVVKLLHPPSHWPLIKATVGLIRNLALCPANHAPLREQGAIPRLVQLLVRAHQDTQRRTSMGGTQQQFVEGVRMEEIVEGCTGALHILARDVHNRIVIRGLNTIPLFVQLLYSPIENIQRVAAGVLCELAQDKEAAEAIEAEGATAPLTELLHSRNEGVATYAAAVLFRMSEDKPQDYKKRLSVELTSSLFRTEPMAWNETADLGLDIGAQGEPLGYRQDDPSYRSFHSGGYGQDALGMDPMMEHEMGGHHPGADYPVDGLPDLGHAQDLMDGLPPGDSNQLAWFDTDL
# [4] = target: β-catenin:TCF4 interaction (Homo sapiens, UniProt P35222); conditions: read-out: IC50 for inhibition of β-catenin binding to TCF4 N-terminal β-catenin binding domain; 5 nM His6-β-catenin
# [5] = target: T3, E-cadherin:β-catenin interaction (Homo sapiens, UniProt P35222); test: Two-hybrid like assay, E-cadherin with β-catenin; type: cell-based
# T3 sequence (P35222 1-781): T2 sequence (P35222 1-781)
# [6] = system: LNCaP-abl and LNCaP-95 cells; test: RT-qPCR of endogenous Wnt and AR target genes; type: cell-based; conditions: 10 μM, 24 hours
# Protocol: These cell lines were derived from androgen-sensitive LNCaP cells, and passaged in androgen-deprived media to mimic the development of castration resistance in patient tumors. mRNA from LNCaP-abl and LNCaP-95 cells treated with DMSO (vehicle) was isolated, 10 μM 13 and linear 13 for 24 hours to check the expression of endogenous Wnt and AR target genes (FIG. 8A). […] AR-V7 is particularly challenging to target as most AR antagonists target the ligand binding domain.
# Cell Culture LNCaP-abl and LNCaP-95 cells were cultured in indicator free RPMI 1640 media (Life) supplemented with 10% charcoal stripped FBS, 1% penn/strep, and 1% L-Glutamine. HEK-293 Cells were cultured in DMEM media (Life) supplemented with 10% FBS and 1% penn/strep. Luciferase assays were conducted using stably transfected TOP-flash and 3×ARE LNCaP-abl cell lines. For the Wnt pathway, TOP-Flash LNCaP-abl cells were treated with siAPC for 24 hours followed by 24 hours treatment with compound. For the AR-pathway, 3×ARE LNCaP-abl cells were treated for 48 hours with compound, with the addition of R1881 for the final 8 hours. Both were measured using the ONE-Glo detection kit (Promega) and reported data is standardized to the cell-titer control values. Co-immunoprecipitation was carried out using HEK293 cells transfected with either myc-TCF (addgene #32738) or myc-TCF dominant negative (addgene #32739) followed by 48 hours of treatment with compound. Cells were lysed using trition lysis buffer and 1 mg total protein was incubated overnight at 4 C with 40 μl anti-cMyc magnetic beads (Thermo). The beads were washed 3× with lysis buffer then boiled in 2× sample loading dye. SDS-PAGE and western blotting were performed using anti-myc (CST 2276) and anti-β-catenin (CST 8480). RT-qPCR was performed using RNA isolated with the RNEasy kit (Qiagen) from LNCaP-abl and LNCaP-95 cells after 24 hour treatment with 10 μM compound. The Verso cDNA synthesis kit (Thermo) with 1 μg total RNA was used, and qPCR data was collected using Fast SYBR Green Master Mix on a QuantiStudio 6 Flex (Life Technologies). 2D proliferation assays were conducted using 384 well plates seeded with 2000 cells/well LNCaP-abl or LNCaP-95 cells. After 5 days of treatment the cell viability was measured with the CellTiter-Fluor Cell Viability Assay (Promega) and data is reported standardized to DMSO control.
# LNCaP-abl spheroids = test: Spheroid 3D cell culture (PrestoBlue viability, spheroid area); type: cell-based
# Protocol: The effects on spheroid formation and growth were evaluated following treatment with DMSO, 13, or linear 13 administered at the time of seeding at low cell density in a 384 well plate. In a separate experiment, to test the impact on pre-formed spheroids, cells were treated five days after initial seeding. Spheroids from both experiments were grown for 22 days, with compound refreshed on days 5, 9, 13, 16, and 20. […] PrestoBlue was used to measure cell viability on day 22 (FIG. 9B). […] FIG. 9C-F depicts spheroid area over time based on size measurements from the images taken throughout the experiment.
# Spheroid 3D Cell Culture LNCaP-abl cells were seeded into 384 well ultra-low attachment plates (Corning), 1000 cells/well. Varying concentrations of compound were added either on the same day as seeding or on day 5. Media was changed every 3-4 days using a Biotek automated media exchanger. Images were taken using an ArraySca VTI (Thermo) on days 5, 9, 13, 16, 20, and 22. A final viability measurement was taken on day 22 using PrestoBlue reagent (Thermo).
# [7] = 3 additional independent experiments, each
# [8] = first experiment, eight fish, BIO added at 6 hpf with or without 13
compound,measurement,setting,value
"O=C1Nc2cc(Br)ccc2/C1=C1/Nc2ccccc2/C1=N\O [BIO, reference compound]",Fish that developed eyes,[1]; [7],0/8
same,Fish that developed eyes,[1]; [8],one of the eight fish
"COc1ccc([C@H](C)N2CC(=O)N[C@H](C)C(=O)N(CCc3ccccc3Oc3ccccc3)CC(=O)N(c3cc(OC)cc(OC)c3)CC(=O)N(CCCOC(C)C)CC(=O)N([C@@H](C)c3ccc(OC)cc3)CC2=O)cc1 [Compound 13] (cyclo([dA][N(2-(2-PhOPh)Et)Gly][Gly(N-3,5-(OMe)2-Ph)][N((CH2)3OiPr)Gly][X1][X1]))","Wnt inhibitory activity, TOP-Flash Wnt luciferase reporter","Wnt signaling pathway; 10 µM concentration, cell culture",more effective
same,IC50,Wnt signaling pathway,0.105 µM
same,Fish that developed eyes,[1]; [7],8/8
same,Fish that developed eyes,[1]; [8],all the fish
same,"Inhibition of AR signaling, 3x-ARE luciferase reporter",AR signaling,more effective
same,IC50,AR signaling,1.02 µM
same,"β-catenin:TCF interaction by co-immunoprecipitation, compared to DMSO",[2],decreased
same,Inhibition of TCF family interaction with β-catenin,[3],inhibits
same,IC50,[4],5.44 µM
same,Inhibition of E-cadherin interaction with β-catenin,[5],not
same,AR mRNA,[6],decreased
same,Cyclin D1 mRNA,[6],decreased
same,FKBP5 mRNA,[6],decreased
same,PSA mRNA,[6],decreased
same,Transcription of AR splice variant AR-V7,[6],decreased
same,Transcription of E-cadherin,[6],increased
same,cMYC mRNA,[6],decreased
same,Spheroid growth / area over time,"LNCaP-abl spheroids; 0.5 μM, added on day 0",slowed the growth
same,Spheroid formation / area over time,"LNCaP-abl spheroids; 20 μM, 10 μM, 5 μM, 2 μM and 1 μM, added on day 0 with seeding",prevented spheroid formation
same,Growth of preformed spheroids / area over time,"LNCaP-abl spheroids; at or above 2 μM, treatment started at day 5",stalled the growth of preformed spheroids
same,Spheroid growth / area over time,LNCaP-abl spheroids; between 0.001 µM and 0.1 μM,little effect
"NH2-D-Ala-N-mpp, N-dmp, N-ipp, N-Smpe, N-Smpe-OH [linear 13]",IC50,Wnt signaling pathway,3.27 µM
same,IC50,AR signaling,7.63 µM
